Biological target: T1, CK1δ (Homo sapiens, UniProt P48730)
Assay: In vitro kinase assay, CK1d, 32P-ATP filter binding (Reaction Biology Corporation)
Format: biochemical
Settings: footnote a: determined by Reaction Biology Corporation; read-out: IC50 CK1d
Description: Compounds were tested in 10-dose IC50 mode with 3-fold serial dilution starting at 50 μM. […] Reactions were carried out at 10 μM ATP. Average and standard deviations of reactions carried out in triplicate are shown.
(§1) In vitro kinase assay to detect CK1 or FLT3 activity: CK1 and FLT3 assays as well as complete kinase profile of 296 kinases was performed by Reaction Biology Corporation. For FLT3 20 μM final Abltide was used, sequence: [[…]]. For CK1 (all isoforms) 20 μM CK1 tide was used, sequence: [KRRRAL[pS]VASLPGL] in a standard kinase assay with ^32P-ATP and purified kinase. Incorporation of ^32P-ATP into the peptide was measured after a filter-binding assay. In-house CK1d inhibition assays were performed using a standard homogenous time-resolved fluorescence resonance energy transfer (TR-FRET) format in 50 mM Hepes, pH 7.0, 2.5 mM MgCl2, 0.1 mg/ml bovine serum albumin, 1 mM DL-dithiothreitol, 0.01% Triton X-100 (all from Sigma-Aldrich). Briefly, the CK1δ substrate (DEKTDDE, containing CK1 consensus sequence; 4 μL of a 500 nM stock solution) is labeled with a small Ulight acceptor dye (PerkinElmer). In the presence of 10 μL of 10 nM CK1δ, the Ulight peptide is phosphorylated at a single amino acid that is specifically recognized by a europium chelate (Eu)-labeled phosphospecific antibody. Assays were performed in the presence of 2 μL of compound at different (measured) concentrations, and reactions were stopped by adding 10 μL of 4 nM Eu-anti-p-Topo-IIa (PerkinElmer) in Lance Detection Buffer (Perkin Elmer). Upon excitation of the Eu-labeled antibody, energy is transferred to the acceptor dye resulting in the emission of detected light at 665 nm.

T1 sequence (P48730 whole entry): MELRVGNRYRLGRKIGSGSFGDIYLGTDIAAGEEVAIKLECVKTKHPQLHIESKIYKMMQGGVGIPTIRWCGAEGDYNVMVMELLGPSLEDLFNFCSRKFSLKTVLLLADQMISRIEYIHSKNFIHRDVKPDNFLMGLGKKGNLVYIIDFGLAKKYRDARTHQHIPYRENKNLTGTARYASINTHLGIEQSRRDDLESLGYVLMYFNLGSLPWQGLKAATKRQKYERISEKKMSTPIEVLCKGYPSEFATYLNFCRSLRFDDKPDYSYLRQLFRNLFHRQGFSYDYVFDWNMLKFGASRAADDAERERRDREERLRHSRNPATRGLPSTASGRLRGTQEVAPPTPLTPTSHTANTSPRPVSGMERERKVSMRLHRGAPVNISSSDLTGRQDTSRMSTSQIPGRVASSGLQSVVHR

| SMILES | IC50 |
| --- | --- |
| O=[N+]([O-])c1cccc2[nH]c(CNc3nc(N4CCOCC4)nc4c3ncn4-c3ccc(F)cc3)nc12 [SR-2362] | 1130 nM |

Biological target: T1, CK1δ
Assay: In-house CK1d inhibition assay (TR-FRET)
Format: biochemical
Settings: footnote b: in-house CK1d assay
Description: as §1

| SMILES | IC50 |
| --- | --- |
| Fc1cccc(-n2cnc3c(NCc4nc5cc(F)ccc5[nH]4)nc(N4CCOCC4)nc32)c1 [SR-3162] | 88 nM |
| NC1CN(c2nc(NCc3nc4ccccc4[nH]3)c3ncn(-c4cccc(F)c4)c3n2)C1 [SR-3084] | 382 nM |
| CN(C)C(=O)c1cccc2[nH]c(CNc3nc(N4CCNCC4)nc4c3ncn4-c3ccoc3)nc12 [SR-2928] | 107 nM |
| Fc1cccc(-n2cnc3c(NCc4nc5c(F)cccc5[nH]4)nc(N4CCOCC4)nc32)c1 [SR-3086] | 37 nM |
| CCN1CCN(c2nc(NCc3nc4ccccc4[nH]3)c3ncn(-c4cccc(F)c4)c3n2)CC1 [SR-2948] | 589 nM |
| OC1CN(c2nc(NCc3nc4ccccc4[nH]3)c3ncn(-c4cccc(F)c4)c3n2)C1 [SR-3087] | 482 nM |
| CN1CCN(c2nc(NCc3nc4ccccc4[nH]3)c3ncn(-c4cccc(F)c4)c3n2)CC1 [SR-2932] | 306 nM |
| CCOC(=O)c1ccc2[nH]c(CNc3nc(N4CCNCC4)nc4c3ncn4-c3ccoc3)nc2c1 [SR-2916] | 687 nM |
| Clc1ccc2[nH]c(CNc3nc(N4CCCNCC4)nc4c3ncn4-c3ccoc3)nc2c1 [SR-2917] | 120 nM |
| CN1CCN(c2nc(NCc3nc4cc(Cl)ccc4[nH]3)c3ncn(-c4cccc(F)c4)c3n2)CC1 [SR-2870] | 828 nM |
| c1ccc(-c2cccc(-n3cnc4c(NCc5nc6ccccc6[nH]5)nc(N5CCOCC5)nc43)c2)cc1 [SR-3048] | > 10000 nM |
| O=[N+]([O-])c1cccc2[nH]c(CNc3nc(N4CCOCC4)nc4c3ncn4-c3cc(F)cc(F)c3)nc12 [SR-2368] | 75 nM |
| O=[N+]([O-])c1cccc2[nH]c(CNc3nc(N4CCOCC4)nc4c3ncn4-c3ccccc3F)nc12 [SR-2366] | 114 nM |
| CC(C)N1CCN(c2nc(NCc3nc4ccccc4[nH]3)c3ncn(-c4cccc(F)c4)c3n2)CC1 [SR-2949] | 2410 nM |
| NC1CCN(c2nc(NCc3nc4cc(Cl)ccc4[nH]3)c3ncn(-c4cccc(F)c4)c3n2)C1 (stereo not drawn) [SR-3098] | 150 nM |
| Fc1cccc(-n2cnc3c(NCc4nc5c(Cl)cccc5[nH]4)nc(N4CCOCC4)nc32)c1 [SR-2950] | 153 nM |
| Clc1ccc2[nH]c(CNc3nc(N4CCNCC4)nc4c3ncn4-c3ccsc3)nc2c1 [SR-2876] | 51 nM |

| SMILES | IC50 |
| --- | --- |
| C[C@@H]1CN(c2nc(NCc3nc4cc(Cl)ccc4[nH]3)c3ncn(-c4cccc(F)c4)c3n2)C[C@H](C)O1 [SR-3096] | 830 nM |
| Fc1cccc(-n2cnc3c(NCc4nc5ccccc5[nH]4)nc(N4CCCCC4)nc32)c1 [SR-3005] | > 10000 nM |
| NC1CN(c2nc(NCc3nc4cc(Cl)ccc4[nH]3)c3ncn(-c4cccc(F)c4)c3n2)C1 [SR-3095] | 360 nM |
| NC1CCN(c2nc(NCc3nc4cc(Cl)ccc4[nH]3)c3ncn(-c4ccsc4)c3n2)CC1 [SR-2875] | 119 nM |
| Fc1cccc(-n2cnc3c(NCc4nc5ccccc5[nH]4)nc(N4CCCC4)nc32)c1 [SR-3006] | 884 nM |
| CN1CCN(c2nc(NCc3nc4cc(F)ccc4[nH]3)c3ncn(-c4cccc(F)c4)c3n2)CC1 [SR-2871] | 190 nM |
| Fc1cccc(-n2cnc3c(NCc4nc5ccccc5[nH]4)nc(N4CCOCC4)nc32)c1 [SR-2931] | 101 nM |
| O=[N+]([O-])c1cccc2[nH]c(CNc3nc(N4CCOCC4)nc4c3ncn4-c3cccc(F)c3)nc12 [SR-2364] | 46 nM |
| CC1CN(c2nc(NCc3nc4ccccc4[nH]3)c3ncn(-c4ccsc4)c3n2)CCN1 (stereo not drawn) [SR-2915] | 199 nM |
| CN1CCN(c2nc(NCc3nc4cc(C(F)(F)F)ccc4[nH]3)c3ncn(-c4ccoc4)c3n2)CC1 [SR-2867] | 199 nM |
| Fc1cccc(-n2cnc3c(NCc4nc5cc(F)ccc5[nH]4)nc(N4CCNCC4)nc32)c1 [SR-3163] | 62 nM |
| Fc1cccc(-n2cnc3c(NCc4ccc5c(c4)OCO5)nc(N4CCOCC4)nc32)c1 [SR-3061] | 199 nM |
| Fc1cccc(-n2cnc3c(NCc4cccc5ccccc45)nc(N4CCOCC4)nc32)c1 [SR-3004] | 666 nM |
| COC(=O)c1cccc2[nH]c(CNc3nc(N4CCNCC4)nc4c3ncn4-c3ccoc3)nc12 [SR-2927] | 33 nM |
| Fc1cccc(-n2cnc3c(NCc4nc5ccccc5[nH]4)nc(N4CCC(F)(F)CC4)nc32)c1 [SR-3060] | > 10000 nM |
| c1ccc2[nH]c(CNc3nc(N4CCNCC4)nc4c3ncn4-c3ccoc3)nc2c1 [SR-2914] | 116 nM |

System: K328M-Wee1-luciferase
Assay: Wee1-luciferase assay (stabilization of K328M-Wee1-luciferase)
Format: cell-based
Settings: HeLa cells; result in words
Source text: Steady-state level of K328M-Wee1-Luciferase (K328M-Wee1-Luc) was divided by Luciferase level (Luc) and plotted.
Similar assays have previously been described; PubChem AID 1807.

| SMILES | stabilization of K328M-Wee1-luciferase |
| --- | --- |
| CCN(CC)CCNC(=O)c1c(C)[nH]c(/C=C2\C(=O)Nc3ccc(F)cc32)c1C [Sutent, reference compound] | does not stabilize K328M-Wee1-luciferase |

Same assay, conditions: at 250 nM, reported relative to SR-1277 = 100%

| SMILES | % Inhibition, Wee1 Degradation |
| --- | --- |
| OCCN1CCN(c2nc(NCc3nc4ccccc4[nH]3)c3ncn(-c4ccsc4)c3n2)CC1 [SR-1296] | 10.0% |
| c1ccc(-n2cnc3c(NCc4nc5ccccc5[nH]4)nc(N4CCOCC4)nc32)cc1 [SR-649967] | 4.0% |
| CC(C)n1cnc2c(NCc3nc4ccccc4[nH]3)nc(Nc3ccncn3)nc21 [SR-656428] | 4.0% |
| C[C@@H](Nc1nc(NCc2nc3ccccc3[nH]2)c2ncn(-c3ccsc3)c2n1)c1ccccc1 [SR-1289] | 9.2% |
| c1cnc2ccc3[nH]c(CNc4nc(N5CCOCC5)nc5c4ncn5-c4ccsc4)nc3c2c1 [SR-1281] | 22.0% |
| c1ccc(N2CCN(c3nc(NCc4nc5ccccc5[nH]4)c4ncn(-c5ccsc5)c4n3)CC2)nc1 [SR-648378] | 4.0% |
| CCOC(=O)c1cccc2[nH]c(CNc3nc(N4CCOCC4)nc4c3ncn4C(C)C)nc12 [SR-1283] | 17.0% |
| CC(C)n1cnc2c(NCc3nc4ccccc4[nH]3)nc(Nc3cnccn3)nc21 [SR-660754] | 5.3% |
| c1ccc2[nH]c(CNc3nc(NCCN4CCOCC4)nc4c3ncn4-c3ccsc3)nc2c1 [SR-1298] | 8.1% |
| CC(C)n1cnc2c(NCc3nc4c(C(=O)O)cccc4[nH]3)nc(N3CCOCC3)nc21 [SR-1402] | 0.0% |
| c1ccc2[nH]c(CNc3nc(N4CCCCC4)nc4c3ncn4-c3ccsc3)nc2c1 [SR-1288] | 10.5% |
| c1ccc2[nH]c(CNc3nc(N4CCCC4)nc4c3ncn4-c3ccsc3)nc2c1 [SR-1293] | 9.9% |
| CC(C)n1cnc2c(NCc3nc4ccccc4[nH]3)nc(Nc3cccnc3)nc21 [SR-655534] | 3.4% |
| C=CCN(CC=C)c1nc(NCc2nc3ccccc3[nH]2)c2ncn(-c3ccsc3)c2n1 [SR-1295] | 8.2% |
| O=C(NC1CC1)c1ccc(-c2nc(NCc3nc4ccccc4[nH]3)c3ncn(-c4ccsc4)c3n2)cc1 [SR-658807] | 3.6% |
| NCCN1CCN(c2nc(NCc3nc4ccccc4[nH]3)c3ncn(-c4ccsc4)c3n2)CC1 [SR-1299] | 8.6% |
| O=C(O)c1cccc2[nH]c(CNc3nc(N4CCOCC4)nc4c3ncn4-c3ccsc3)nc12 [SR-1401] | 0.0% |
| c1ccc2[nH]c(CNc3nc(Nc4cnccn4)nc4c3ncn4-c3ccsc3)nc2c1 [SR-660983] | 2.9% |
| CC(C)n1cnc2c(NCc3nc4ccccc4[nH]3)nc(N3CCOCC3)nc21 [SR-648126] | 4.1% |
| c1ccc2c(c1)CCN2c1nc(NCc2nc3ccccc3[nH]2)c2ncn(-c3ccsc3)c2n1 [SR-1297] | 7.9% |
| Nc1cccc2[nH]c(CNc3nc(N4CCOCC4)nc4c3ncn4-c3ccsc3)nc12 [SR-1287] | 15.6% |
| c1ccc2[nH]c(CNc3nc(N4CCSCC4)nc4c3ncn4-c3ccsc3)nc2c1 [SR-1291] | 11.4% |
| Nc1ccc2[nH]c(CNc3nc(N4CCOCC4)nc4c3ncn4-c3ccsc3)nc2c1 [SR-1286] | 8.3% |

Same assay, conditions: read-out: Wee1 Stabilization

| SMILES | EC50 |
| --- | --- |
| c1ccc(-n2cnc3c(NCc4nc5ccccc5[nH]4)nc(N4CCOCC4)nc32)cc1 [SR-649967] | 4300 nM |
| CC(C)n1cnc2c(NCc3nc4ccccc4[nH]3)nc(Nc3ccncn3)nc21 [SR-656428] | 4400 nM |
| c1ccc(N2CCN(c3nc(NCc4nc5ccccc5[nH]4)c4ncn(-c5ccsc5)c4n3)CC2)nc1 [SR-648378] | 4300 nM |
| CC(C)n1cnc2c(NCc3nc4ccccc4[nH]3)nc(Nc3cnccn3)nc21 [SR-660754] | 4000 nM |
| CC(C)n1cnc2c(NCc3nc4ccccc4[nH]3)nc(Nc3cccnc3)nc21 [SR-655534] | 3800 nM |
| O=C(NC1CC1)c1ccc(-c2nc(NCc3nc4ccccc4[nH]3)c3ncn(-c4ccsc4)c3n2)cc1 [SR-658807] | 4100 nM |
| c1ccc2[nH]c(CNc3nc(Nc4cnccn4)nc4c3ncn4-c3ccsc3)nc2c1 [SR-660983] | 3800 nM |
| CC(C)n1cnc2c(NCc3nc4ccccc4[nH]3)nc(N3CCOCC3)nc21 [SR-648126] | 5300 nM |
